Results: US8815837B2, “Respiratory disease treatment” (Pulmagen Therapeutics (Inflammation) Limited, priority 2008, dated 2014)

What was measured:
[1] = tested on: Tobacco Smoke Induced Pulmonary Inflammation; assay: Pre-clinical mouse model of COPD inflammation: tobacco smoke induced pulmonary inflammation, BAL cell counts; format: in vivo; conditions: mice, intranasal, BAL 24 h after final TS exposure
Text: Pre-Clinical Mouse Model of COPD Inflammation—Tobacco Smoke Induced Pulmonary Inflammation
Protocols for the exposure of mice to TS, obtaining bronchoalveolar lavage (BAL), preparation of cytospin slides for differential cell counts are as outlined below.
Exposure of Mice to TS Daily for 4 or 11 Consecutive Days
In this exposure protocol, mice were exposed in groups of 5 in individual clear polycarbonate chambers (27 cm×16 cm×12 cm). The TS from the cigarettes was allowed to enter the exposure chambers at a flow rate of 100 ml/min. In order to minimise any potential problems caused by repeated exposure to a high level of TS (6 cigarettes), the exposure of the mice to TS was increased gradually over the exposure period to a maximum of 6 cigarettes. The exposure schedule used for 4 days was as follows:
The exposure schedule used for 11 days exposure was as follows:
A further group of mice were exposed to air on a daily basis for equivalent lengths of time as controls (no TS exposure).
Bronchoalveolar Lavage (BAL) Analysis
Bronchoalveolar lavage was performed as follows: the trachea was cannulated using a Portex nylon intravenous cannula (pink luer fitting) shortened to approximately 8 mm. Phosphate buffered saline (PBS) was used as the lavage fluid. A volume of 0.4 ml was gently instilled and withdrawn 3 times using a 1 ml syringe and then placed in an Eppendorf tube and kept on ice prior to subsequent determinations.
Lavage fluid was separated from cells by centrifugation and the supernatant decanted and frozen for subsequent analysis. The cell pellet was re-suspended in a known volume of PBS and total cell numbers calculated by counting a stained (Turks stain) aliquot under a microscope using a haemocytometer.
Differential Cell Counts were Performed as Follows:
The residual cell pellet was diluted to approximately 10^5 cells per ml. A volume of 500 μl was placed in the funnel of a cytospin slide and centrifuged for 8 min at 800 rpm. The slide was air dried and stained using ‘Kwik-Diff’ solutions (Shandon) as per the proprietary instructions. When dried and cover-slipped, differential cells were counted using light microscopy. Up to 400 cells were counted by unbiased operator using light microscopy. Cells were differentiated using standard morphometric techniques.
Rodents such as mice and rats are obligate nasal breathers thus oral delivery of test materials (such as therapeutic agents) for inhalation will not produce good lung exposure. As a consequence, delivery of therapeutic agents to the lungs in rodents is generally achieved by intra-nasal, intra-tracheal or inhalation by whole body aerosol exposure in a chamber.
The chamber method utilises large amounts of test material and is generally reserved for inhalation toxicology studies rather than pharmacological efficacy studies. Intra-tracheal administration is a very efficient delivery method as almost all of the test material is delivered to the lungs, but this is quite an invasive technique. For studies in the mouse particularly, it is also quite technically demanding as the diameter of the trachea is quite small. The intranasal route is less invasive than the intra-tracheal route and so is particularly suitable for repeat dosing studies such as the 4-11 day mouse model described below.
The control group of mice received vehicle 1 hr prior to being exposed to air daily for a maximum of 50 minutes per day. BAL was performed 24 h following the final TS exposure. All compounds were dosed as the HCl salt with doses corrected as base.
[…]
Data Management and Statistical Analysis
All results are presented as individual data points for each animal and the mean value was calculated for each group.

rodent diabetes model = conditions: oral administration; cited from earlier work
[2] = cited from earlier work
PPARγ receptor = biological target: T1, PPARγ receptor (Homo sapiens, UniProt P37231); conditions: page 13 of WO2007100027; cited from earlier work
T1 sequence (P37231 1-505): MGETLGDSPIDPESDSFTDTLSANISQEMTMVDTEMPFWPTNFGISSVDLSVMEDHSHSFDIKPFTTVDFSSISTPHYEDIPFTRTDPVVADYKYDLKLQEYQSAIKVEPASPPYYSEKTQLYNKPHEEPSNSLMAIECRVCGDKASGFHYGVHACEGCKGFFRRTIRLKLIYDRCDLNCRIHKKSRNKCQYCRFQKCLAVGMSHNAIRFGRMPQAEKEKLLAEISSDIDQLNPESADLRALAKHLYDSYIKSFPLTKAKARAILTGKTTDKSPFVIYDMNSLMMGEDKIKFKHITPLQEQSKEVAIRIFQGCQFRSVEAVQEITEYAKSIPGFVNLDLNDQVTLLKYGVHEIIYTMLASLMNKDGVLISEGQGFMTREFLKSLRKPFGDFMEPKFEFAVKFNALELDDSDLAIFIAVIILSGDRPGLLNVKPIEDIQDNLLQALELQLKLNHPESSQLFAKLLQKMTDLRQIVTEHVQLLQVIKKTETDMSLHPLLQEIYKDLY

[3] = 10 μg/kg, rosiglitazone experiment, FIG. 3
[4] = 10 μg/kg, rosiglitazone experiment, FIG. 4
[5] = 3 μg/kg, pioglitazone experiment, FIG. 1
[6] = 3 μg/kg, pioglitazone experiment, FIG. 2
[7] = 3 μg/kg, rosiglitazone experiment, FIG. 3
[8] = 3 μg/kg, rosiglitazone experiment, FIG. 4
[9] = 1 μg/kg, pioglitazone experiment, FIG. 1
[10] = 1 μg/kg, pioglitazone experiment, FIG. 2

SMILES | BAL cell influx (total BAL cells) induced by TS [1, 3] | BAL neutrophil numbers induced by TS exposure [1, 4] | BAL cell influx (total BAL cells) induced by TS [1, 5] | BAL neutrophil numbers induced by TS exposure [1, 6] | other results
CN(CCOc1ccc(CC2SC(=O)NC2=O)cc1)c1ccccn1 (racemic) [Racemic rosiglitazone, 5-(4-{2-[methyl (pyridin-2-yl)amino]ethoxy]benzyl}-1,3-thiazolidine-2,4-dione, reference compound] | significantly inhibited | significantly inhibited |  |  | 
CCc1ccc(CCOc2ccc(CC3SC(=O)NC3=O)cc2)nc1 (racemic) [Racemic pioglitazone, 5-{4-[2-(5-ethylpyridin-2-yl)ethoxy]benzyl}-1,3-thiazolidine-2,4-dione, reference compound] |  |  | significantly inhibited | significantly inhibited | activity of racemate versus individual enantiomers in a rodent diabetes model (rodent diabetes model): no difference in activity; interconversion of the two enantiomers in vivo [2]: interconvert in vivo
CN(CCOc1ccc(C[C@@H]2SC(=O)NC2=O)cc1)c1ccccn1.Cl [Example 9, (5S)-5-(4-{2-[methyl(pyridin-2-yl)amino]ethoxy}benzyl)-1,3-thiazolidine-2,4-dione hydrochloride monohydrate] | failed to inhibit | ineffective |  |  | BAL cell influx (total BAL cells) induced by TS [1, 7]: failed to inhibit; BAL neutrophil numbers induced by TS exposure [1, 8]: ineffective
COc1ccc2nc(COc3ccc(CC4SC(=O)NC4=O)cc3)n(C)c2c1 (centres unmarked) [Rivoglitazone] |  |  |  |  | receptor binding affinity, 5S versus 5R enantiomer (PPARγ receptor): 5S enantiomer also has higher receptor binding affinity than the 5R enantiomer
CCc1ccc(CCOc2ccc(C[C@H]3SC(=O)NC3=O)cc2)nc1.Cl [Example 4, (5R)-5-{4-[2-(5-ethylpyridin-2-yl)ethoxy]benzyl}-1,3-thiazolidine-2,4-dione hydrochloride] |  |  | significantly inhibited | significantly inhibited | BAL cell influx (total BAL cells) induced by TS [1, 9]: significantly inhibited; BAL neutrophil numbers induced by TS exposure [1, 10]: significantly inhibited
CCc1ccc(CCOc2ccc(C[C@@H]3SC(=O)NC3=O)cc2)nc1.Cl [Example 6, (5S)-5-{4-[2-(5-ethylpyridin-2-yl)ethoxy]benzyl}-1,3-thiazolidine-2,4-dione hydrochloride] |  |  | failed to inhibit | ineffective | BAL cell influx (total BAL cells) induced by TS [1, 9]: failed to inhibit; BAL neutrophil numbers induced by TS exposure [1, 10]: ineffective
CN(CCOc1ccc(C[C@H]2SC(=O)NC2=O)cc1)c1ccccn1.Cl [Example 8, (5R)-5-(4-{2-[methyl(pyridin-2-yl)amino]ethoxy}benzyl)-1,3-thiazolidine-2,4-dione hydrochloride] | significantly inhibited | significantly inhibited |  |  | BAL cell influx (total BAL cells) induced by TS [1, 7]: significantly inhibited; BAL neutrophil numbers induced by TS exposure [1, 8]: significantly inhibited
